From patent publication US12474342B2, “Methods for treating cancer and the use of biomarkers as a predictor of clinical sensitivity to therapies” (CELGENE CORPORATION, priority 2016, dated 2025)

Test system: p-eIF2α, ATF4, ATF3, CHOP/DDIT3, cleaved Caspases
Experiment: UPR / ATF4 pathway and apoptosis markers in U937 cells (wild type and CRISPR knockouts)
Assay type: cell-based, human
Conditions: for ATF4 pathway and apoptosis: 4 μM
Excerpt: PERK, one of the four eIF2α, kinases, was knocked out in U937 cells by CRISPR-mediated gene editing using PERK−/− Construct 1 or PERK−/− Construct 2.
GCN2, one of the four eIF2α, kinases, was knocked out in U937 cells by CRISPR-mediated gene editing using GCN2 CRISPR Construct 1 or GCN2 CRISPR Construct 4.

O=C1CCC(N2Cc3cc(CNC(=O)C(F)(F)c4ccc(Cl)cc4)ccc3C2=O)C(=O)N1 (stereo not drawn) [Compound D, 2-(4-chlorophenyl)-N-((2-(2,6-dioxopiperidin-3-yl)-1-oxoisoindolin-5-yl)methyl)-2,2-difluoroacetamide]
ATF4 pathway and apoptosis (GCN2 knockout U937 cells): blocked | ATF4 pathway and apoptosis (wild type U937 cells): induced the ATF4 pathway and apoptosis | apoptosis (wild type and PERK knockout U937 cells, 2 μM): induced apoptosis
